In patent publication US20250017878A1 (Chronic Airway Therapeutics Limited, priority 2021, published 2025):

Legend:
[1] = test system: ovalbumin-sensitized, allergen-challenged mice; assay: Aminophylline on acute airway effects of nadolol (methacholine-induced bronchoconstriction), Example 5; format: in vivo; conditions: nadolol 0.72 mg/kg i.p. 15 minutes prior to methacholine challenge
[2] = test system: asthmatic mice (ovalbumin-sensitized and ovalbumin-challenged); conditions: same mouse asthma model; Callaerts-Vegh et al. 2004; cited from earlier work
[3] = cited from earlier work
[4] = test system: patients who had a history of failing to quit smoking programs; assay: Success of smoking cessation versus placebo, Example 14; format: in vivo, human; conditions: patients who had failed quit smoking programs at least 5 times
β2-adrenergic receptor [5] = target: T1, β2-adrenergic receptor (Mus musculus, UniProt P18762); assay: Upregulation of β2-adrenergic receptor density by period of administration, Example 8 / Table 2; format: in vivo, mice; parameters: from tissue
Description: (§1) The periods of administration of the agents are 15 minutes, 2 days, and 28 days. […] This strongly supports the concept of combination therapy, such as with an inverse agonist and an agonist.

[6] = test system: subjects with mild asthma; assay: Salbutamol effectiveness after methacholine challenge in subjects with mild asthma on nadolol, Example 15; format: in vivo, human; conditions: salbutamol 2.5 mg by nebulization
From the text: Salbutamol is a short-acting β2-adrenergic receptor agonist.

[7] = test system: asthmatic mice (ovalbumin-sensitized and ovalbumin-challenged); assay: Airway responsiveness to methacholine (airway resistance Raw, forced oscillation) in murine model of asthma, Example 1; format: in vivo, Balb/cJ mice
Description: The results obtained in drug-treated animals were compared with those obtained in vehicle-treated counterparts (controls) in experiments performed in close temporal relationship. […] Mice were sensitized with subcutaneous injection of 25 μg of ovalbumin adsorbed to aluminum hydroxide on protocol days 2, 9, and 16. Subsequently, mice were given 50 μL of saline solution containing 25 μg of ovalbumin intranasally, on a daily basis, from protocol days 23 through 27. A group of ovalbumin-sensitized saline-challenged mice serves as controls for systemic sensitization and respiratory challenges with ovalbumin. Prior to intranasal administrations, mice were sedated with halothane vapor. For the study of Example 1, ovalbumin-sensitized and ovalbumin-challenged mice, and ovalbumin-sensitized and saline-challenged mice will be referred to as asthmatic mice and control mice, respectively. […] To examine the effects of duration of β-adrenergic ligand therapy on the phenotype of the murine model of asthma, the experimental drugs were administered either acutely or chronically to different groups of asthmatic mice. […] These concentrations were chosen based on those producing therapeutic effects in mice in previously published studies. The non-asthmatic mice were fed normal chow. Salbutamol was delivered for 28 days at a dose of 0.5 mg/kg/day using an osmotic minipump (Alzet®, #2004, Durect Corporation, Cupertino, CA). […] Airway resistance (Raw) was measured using the forced oscillation technique. The cellular composition of bronchoalveolar lavage fluid (BALF) was also determined. […] However, it was observed that the degree of airway responsiveness and the number of eosinophils recovered in BALF were lower in non-treated asthmatic mice studied in close temporal relationship with mice receiving acute β-adrenergic antagonist treatments that in those obtained in non-treated asthmatic mice studied concomitantly with mice on chronic β-adrenergic antagonist therapy. […] The complex input impedance of the respiratory system was computed and the value of the real part of respiratory system impedance at 19.75 Hz was taken to reflect the magnitude of airway resistance (Raw). To examine the degree of airway responsiveness of each animal, the values for Raw as a function of methacholine doses were plotted. The largest value for Raw achieved in response to methacholine stimulation was referred to as […]. For mice that achieved a plateau in the methacholine dose-Raw response curve, the ED50 was calculated by linear interpolation using the GraphPad Prism4 (GraphPad Software, Inc.). Results obtained for β-adrenergic drug-treated and non-treated mice were performed using the analysis of variance for multiple groups of a Student's t-test for comparing two groups. The Bonferroni test was used to examine the statistical differences between experimental groups. The effects of acute drug treatments on baseline respiratory system mechanics were assessed using a two-tailed paired t-test. A value of P<0.05 was considered significant.

asthmatic mice [8] = assay: β-adrenergic receptor drugs at low and high doses on airway resistance, Example 7; format: in vivo
Description: For these experiments, salbutamol was used for chronic administration at 0.5 mg/kg/day with a minipump and for acute administration at 0.15 mg/kg by i.v. bolus 15 minutes prior to challenge. […] Carvedilol was used at a high dose of 2400 ppm in chow or at a low dose of 720 ppm in chow. […] In these diagrams, Ctrl=control mice, non-asthmatic, non-drug treated; NTX=asthmatic mice, non-drug treated; AC=acute administration; 2d=chronic administration for 2 days; 28d=chronic administration for 28 days. The airway resistance (Raw) is plotted as cm H2O ml^−1 s.

β-arrestin pathway = assay: Blockade of the β-arrestin pathway, Example 16 / FIG. 16; format: cell-based
β2-adrenergic receptor [9] = assay: Determination of β-adrenergic receptor density by radioligand (ICYP) binding in lung membranes of treated asthmatic mice, Example 2; format: in vivo; conditions: for Apparent KD (of radioligand ICYP): KD of ICYP binding, not of the drug
Description: β2-adrenergic receptor numbers were measured in asthmatic mice as follows. […] Mice were sacrificed and lung membranes were isolated as follows. Frozen lung tissue was homogenized in an ice-cold buffer containing 0.32 M sucrose and 25 mM Tris (pH 7.4) using a polytron (Pro 200, Pro Scientific, Inc.). The homogenate was centrifuged at 1000×g for 10 min at 4° C. The resulting supernatant was centrifuged at 40,000×g for 20 min at 4° C. The pellet was suspended in an ice-cold 25 mM Tris-HCl buffer (pH 7.4) and centrifuged at 40,000×g for 20 min at 4° C. The final pellet was suspended in 200 μL of 25 mM Tris-HCl (pH 7.4); membrane protein concentration was determined by BCA protein assay kit. […] The incubation was done at 37° C. for 2 h and terminated by rapid vacuum filtration through glass fiber filters. The filters were washed three times with 250 μL of cold wash buffer (25 mM Tris-HCl, pH 7.4) and the radioactivity determined in a counter. […] Receptor densities are expressed as femtomoles of sites per milligram of protein. Bmax is determined by nonlinear regression of the saturation binding curves. […] Please note that the 15-minute and 28-day time points refer to duration of drug treatment.

[10] = test system: mucous metaplasia in sensitized/challenged mice; assay: Mucous metaplasia in sensitized/challenged mice (photomicrographs), Example 10; format: in vivo; conditions: sensitized/challenged mice after treatment
β2-adrenergic receptor [11] = target: T1, β2-adrenergic receptor; assay: Immunohistochemistry of β2-adrenergic receptor levels in lung sections, Example 3; format: in vivo, mice; parameters: from tissue; host or cells: mouse lung sections; conditions: chronic nadolol versus untreated animals; epifluorescent microscopy
Description: The mice were sacrificed and the lungs excised. Then the lungs were fixed in 4% paraformaldehyde (45 min, 0° C.). After fixation, lungs were washed in PBS (60 min) and placed in increasing concentrations of sucrose (10% sucrose/5% glycine in PBS for 30 min; 20% sucrose/10% glycine in PBS for 30 min; 30% sucrose/15% glycine in PBS for 12 h at 4° C.). Lungs were embedded in OCT and 12-μm sections cut with a Tissue-Tek II cryostat. The sections were air-dried and fixed with 4% paraformaldehyde for 15 minutes. After 3 washes in PBS, the slides were blocked with 5% milk in PBS for 1 hour, and then incubated overnight with anti-β2-adrenergic receptor antibody (1:200, Santa Cruz Biotechnology) in blocking solution. Slides were washed in PBS and incubated with secondary antibody (1:200, Cy3 goat anti-rabbit antibody, 16 h at 4° C.). […] After washing with PBS, coverslips were mounted and viewed by epifluorescent microscopy.

asthmatic mice [12] = assay: Decrease in airway resistance (Raw) by period of administration, Example 8 / Table 2; format: in vivo
Description: as §1

cAMP accumulation = assay: cAMP accumulation, Example 16 / FIG. 16; format: cell-based

T1 sequence (P18762 whole entry): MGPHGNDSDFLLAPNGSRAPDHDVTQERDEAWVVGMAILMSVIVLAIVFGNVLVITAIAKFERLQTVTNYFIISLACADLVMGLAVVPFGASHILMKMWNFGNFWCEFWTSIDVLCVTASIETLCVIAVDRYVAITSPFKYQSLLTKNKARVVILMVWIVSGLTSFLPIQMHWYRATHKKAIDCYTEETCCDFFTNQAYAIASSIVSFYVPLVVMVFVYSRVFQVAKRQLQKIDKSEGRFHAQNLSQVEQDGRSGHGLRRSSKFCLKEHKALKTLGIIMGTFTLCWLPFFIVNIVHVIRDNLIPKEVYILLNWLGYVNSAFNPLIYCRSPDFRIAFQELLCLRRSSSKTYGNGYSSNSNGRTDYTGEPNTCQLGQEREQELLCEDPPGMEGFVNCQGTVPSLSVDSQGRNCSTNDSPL

Increased β2AR density (β2-adrenergic receptor [5]; 15 minutes administration): no
Increased β2AR density (β2-adrenergic receptor [5]; 2 days administration): yes
Increased β2AR density (β2-adrenergic receptor [5]; 28 days administration): yes
increase of the level of β2-adrenergic receptors over the non-treated mice (β2-adrenergic receptor [9]; chronic administration, versus untreated methacholine-challenged asthmatic mice): nearly eightfold increase
labeling with anti-β2-adrenergic receptor antibodies in lungs (β2-adrenergic receptor [11]): considerably more intense
Structure (SMILES): CC(C)(C)NCC(O)COc1cccc2c1CC(O)C(O)C2 (stereo not shown) [Nadolol, nadolol]
baseline airway resistance [1]: the same baseline airway resistance as non-drug treated sensitized and allergen-challenged mice
airway hyperresponsiveness, administered acutely [2]: worsens airway hyperresponsiveness
airway hyperresponsiveness, administered chronically [2]: prevents airway hyperresponsiveness
lipid solubility [3]: low lipid solubility
reduction in smoking [4]: 70%
effect on effectiveness of salbutamol after methacholine challenge [6]: does not block the effectiveness of the administration of salbutamol
airway responsiveness to methacholine provocation (Raw), chronic treatment ([7]; drug delivered for 28 days (chow or osmotic minipump)): produced a decrease in airway responsiveness, which was more pronounced than that caused by carvedilol treatment
airway responsiveness to methacholine provocation (Raw), acute treatment ([7]; single intravenous bolus 15 minutes before methacholine): enhanced the airway responsiveness of asthmatic mice
protection from airway hyperresponsiveness (asthmatic mice [8]; chronic administration in chow, high and low dose): providing protection from airway hyperresponsiveness with chronic administration
airway resistance (Raw) at 1 ppm in chow (asthmatic mice [8]; nadolol 1 ppm in chow): identical to the untreated mice
block of the β-arrestin pathway (β-arrestin pathway): acts to block the β-arrestin pathway
Apparent KD (of radioligand ICYP) (β2-adrenergic receptor [9]; lung membranes, drug treatment 15 Minutes): (695.1 ± 286.3) pM
Bmax (β-adrenergic receptor density) (β2-adrenergic receptor [9]; lung membranes, drug treatment 15 Minutes, mean ± SEM, n=3-5): 181.9 ± 48.28 femtomoles of sites per milligram of protein
Apparent KD (of radioligand ICYP) (β2-adrenergic receptor [9]; lung membranes, drug treatment 28 Days): (1591.6 ± 335.0) pM
βmax (β-adrenergic receptor density) (β2-adrenergic receptor [9]; lung membranes, drug treatment 28 Days, mean ± SEM, n=3-5): 785.5 ± 154.8 femtomoles of sites per milligram of protein
mucous metaplasia [10]: nearly complete elimination of mucous metaplasia
Decreased Raw (asthmatic mice [12]; 15 minutes administration): no
Decreased Raw (asthmatic mice [12]; 2 days administration): yes
Decreased Raw (asthmatic mice [12]; 28 days administration): yes
cAMP accumulation (cAMP accumulation): not associated with cAMP accumulation
